target: T1, enzyme ACAT-1 (Homo sapiens, UniProt P35610); assay: primary enzymatic test HepG2: NBD-cholesterol fluorescence test of inhibitory action on ACAT-1 (SOAT-1); assay type: cell-based; details: HepG2 cells, NBD-cholesterol 1 μg/ml, incubation 6 h at 37° C., fluorescence excitation 490 nm, emission 540 nm
T1 construct: endogenous in cells; host or cells: HepG2
T1 sequence (P35610 1-550): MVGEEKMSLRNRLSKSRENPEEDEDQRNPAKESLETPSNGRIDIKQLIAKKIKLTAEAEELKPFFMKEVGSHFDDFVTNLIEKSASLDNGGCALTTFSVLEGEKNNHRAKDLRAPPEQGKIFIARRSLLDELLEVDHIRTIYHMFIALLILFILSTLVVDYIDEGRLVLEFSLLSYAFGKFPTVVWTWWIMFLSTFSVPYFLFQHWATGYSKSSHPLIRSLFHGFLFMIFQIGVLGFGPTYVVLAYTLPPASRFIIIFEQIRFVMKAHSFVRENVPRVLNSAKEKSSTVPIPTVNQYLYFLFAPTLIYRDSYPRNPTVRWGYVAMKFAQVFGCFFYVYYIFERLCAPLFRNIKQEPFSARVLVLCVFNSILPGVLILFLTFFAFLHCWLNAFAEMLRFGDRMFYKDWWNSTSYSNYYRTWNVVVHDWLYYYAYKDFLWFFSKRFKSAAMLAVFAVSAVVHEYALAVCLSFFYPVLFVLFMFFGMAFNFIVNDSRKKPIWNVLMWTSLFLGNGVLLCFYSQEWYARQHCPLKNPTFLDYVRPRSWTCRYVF
Description: The compounds (I) according to the invention, as well as their pharmaceutically acceptable salts, solvates and/or hydrates, have inhibitory properties on the enzyme SOAT-1. This inhibitory activity on the enzyme SOAT-1 is measured according to a primary enzymatic test HepG2, as described in Example 16.
The compounds of formula (I) according to the invention were subjected to a test allowing their inhibitory action to be evaluated with respect to the enzyme ACAT-1 inspired by the following publication: “Identification of ACAT1- and ACAT2-specific inhibitors using a novel, cell-based fluorescence assay: individual ACAT uniqueness”, J. Lipid. Res (2004) vol 45, pages 378-386. The principle of this test is based on the employment of NBD-cholesterol, an analogue of cholesterol whose fluorescence depends on its environment. When this is present in a polar environment, it is weakly fluorescent although in a nonpolar environment it is strongly fluorescent. Free NBD-cholesterol locates itself in the cell membranes and is weakly fluorescent in this polar environment. When the NBD-cholesterol is esterified by ACAT, the ester of NBD-cholesterol locates itself in the nonpolar lipid droplets and is in that case strongly fluorescent.
The method below is applied: The HepG2 cells are incubated in the presence of NBD-cholesterol (1 μg/ml) and of the compound of formula (I) to be tested in black 96-well plates with a transparent base at a rate of 30 000 cells per well. After incubation for 6 h at 37° C., under 5% CO2, the medium is eliminated by turning over and the cells are washed with 2 times 100 μl of PBS. After addition of 50 μl of lysis buffer (NaPO4 10 mM, Igepal 1%), the plates are stirred for 5 min and read in fluorescence (excitation 490 nm, emission 540 nm) on a FUSION apparatus (Perkin-Elmer).

Row | IC50 [nM] | SMILES
1 | 3.2 | Cc1ccc(N2C3(CCCCC3)CN(CC(=O)Nc3c(C(C)C)cccc3C(C)C)S2(=O)=O)cc1 [I.5, N-(2,6-Diisopropylphenyl)-2-(2,2-dioxo-1-p-tolyl-2lambda*6*-thia-1,3-di-azaspiro[4.5]dec-3-yl)acetamide]
2 | 5.4 | CC(C)c1cccc(C(C)C)c1NC(=O)CN1CC2(CCCCC2)N(c2ccccc2)C1=O [I.1, N-(2,6-Diisopropylphenyl)-2-(2-oxo-1-phenyl-1,3-diazaspiro[4.5]dec-3-yl)-acetamide]
3 | 0.9 | CCC1(CC)CN(CC(=O)Nc2c(C(C)C)cccc2C(C)C)C(=O)N1c1ccc(C)cc1 [I.13, 2-(4,4-Diethyl-2-oxo-3-p-tolylimidazolidin-1-yl)-N-(2,6-diisopropylphenyl)-acetamide]
4 | 7.1 | CCc1ccc(N2C(=O)N(CC(=O)Nc3c(C(C)C)cccc3C(C)C)CC23CCCCC3)cc1 [I.9, N-(2,6-Diisopropylphenyl)-2-[1-(4-ethylphenyl)-2-oxo-1,3-diazaspiro-[4.5]dec-3-yl]acetamide]
